Reference: PubChem BioAssay AID1963973 (Molecular Pharmacology Branch, DTP, NCI, 2024)

System: 883617-216-R-J1-PDC tumor spheroids, viability
Assay: Anticancer human tumor 883617-216-R-J1-PDC patient-derived bladder carcinoma cell line growth inhibition [PI3K]
Settings: spheroids with HUVEC and MSC; for IC50: curve of first compound; for viability, T/C: stronger effect = lower value
Method in brief: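 Combination activity was assessed by viability in multicellular tumor spheroids carrying HUVEC and MSC components. Agents were tested with PI3K inhibitors from a Cmax-based top dose (or 10 microM) downward in half-log increments.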

[1] = second compound 0.0316 µM, first compound 0.0316 µM
[2] = second compound 0.0316 µM, first compound 0.1 µM
[3] = second compound 0.1 µM, first compound 0.0316 µM
[4] = second compound 0.1 µM, first compound 0.1 µM
[5] = second compound 0.316 µM, first compound 0.0316 µM
[6] = second compound 0.316 µM, first compound 0.1 µM
[7] = second compound 1 µM, first compound 0.0316 µM
[8] = second compound 1 µM, first compound 0.1 µM
[9] = second compound 3.16 µM, first compound 0.0316 µM
[10] = second compound 3.16 µM, first compound 0.1 µM
[11] = second compound 10 µM, first compound 0.0316 µM
[12] = second compound 10 µM, first compound 0.1 µM
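Note: spheroids exposed to agents for 7 days before the viability read.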

Q: Which results are given for `CC(C)NCC(C(=O)N1CCN(c2ncnc3c2C(C)CC3O)CC1)c1ccc(Cl)cc1` (centres undefined) + Cc1nc(NC(=O)N2CCCC2C(N)=O)sc1-c1ccnc(C(C)(C)C(F)(F)F)c1?
A: IC50 (second compound 0.0316 µM): 403 nM; IC50 (second compound 0.1 µM): 213 nM; IC50 (second compound 0.316 µM): < 31.6 nM; IC50 (second compound 1 µM): < 31.6 nM; IC50 (second compound 3.16 µM): < 31.6 nM; IC50 (second compound 10 µM): < 31.6 nM; viability, T/C [1]: 77%; viability, T/C [2]: 67.7%; viability, T/C (second compound 0.0316 µM, first compound 0.316 µM): 57.6%; viability, T/C (second compound 0.0316 µM, first compound 1 µM): 27.9%; viability, T/C (second compound 0.0316 µM, first compound 3.16 µM): 13.8%; viability, T/C (second compound 0.0316 µM, first compound 10 µM): 8.01%; viability, T/C [3]: 72.8%; viability, T/C [4]: 60.1%; viability, T/C (second compound 0.1 µM, first compound 0.316 µM): 45.5%; viability, T/C (second compound 0.1 µM, first compound 1 µM): 26.7%; viability, T/C (second compound 0.1 µM, first compound 3.16 µM): 16.2%; viability, T/C (second compound 0.1 µM, first compound 10 µM): 6.45%; viability, T/C [5]: 37.7%; viability, T/C [6]: 41%; viability, T/C (second compound 0.316 µM, first compound 0.316 µM): 36.6%; viability, T/C (second compound 0.316 µM, first compound 1 µM): 22.6%; viability, T/C (second compound 0.316 µM, first compound 3.16 µM): 10.9%; viability, T/C (second compound 0.316 µM, first compound 10 µM): 4.92%; viability, T/C [7]: 30.4%; viability, T/C [8]: 29.9%; viability, T/C (second compound 1 µM, first compound 0.316 µM): 24.4%; viability, T/C (second compound 1 µM, first compound 1 µM): 15.2%; viability, T/C (second compound 1 µM, first compound 3.16 µM): 8.01%; viability, T/C (second compound 1 µM, first compound 10 µM): 4.96%; viability, T/C [9]: 17.9%; viability, T/C [10]: 10.5%; viability, T/C (second compound 3.16 µM, first compound 0.316 µM): 10.3%; viability, T/C (second compound 3.16 µM, first compound 1 µM): 9.2%; viability, T/C (second compound 3.16 µM, first compound 3.16 µM): 8.98%; viability, T/C (second compound 3.16 µM, first compound 10 µM): 3.73%; viability, T/C [11]: 7.03%; viability, T/C [12]: 5.88%; viability, T/C (second compound 10 µM, first compound 0.316 µM): 5.22%; viability, T/C (second compound 10 µM, first compound 1 µM): 5.21%; viability, T/C (second compound 10 µM, first compound 3.16 µM): 3.1%; viability, T/C (second compound 10 µM, first compound 10 µM): 2.33%

Q: Which results are given for `Cn1ncnc1[C@H]1c2n[nH]c(=O)c3cc(F)cc(c23)N[C@@H]1c1ccc(F)cc1` + Cc1nc(NC(=O)N2CCCC2C(N)=O)sc1-c1ccnc(C(C)(C)C(F)(F)F)c1?
A: IC50 (second compound 0.0316 µM): > 100 nM; IC50 (second compound 0.1 µM): > 100 nM; IC50 (second compound 0.316 µM): < 0.316 nM; IC50 (second compound 1 µM): < 0.316 nM; IC50 (second compound 3.16 µM): < 0.316 nM; IC50 (second compound 10 µM): < 0.316 nM; viability, T/C (second compound 0.0316 µM, first compound 0.000316 µM): 88.1%; viability, T/C (second compound 0.0316 µM, first compound 0.001 µM): 74%; viability, T/C (second compound 0.0316 µM, first compound 0.00316 µM): 68.2%; viability, T/C (second compound 0.0316 µM, first compound 0.01 µM): 68.5%; viability, T/C [1]: 64.8%; viability, T/C [2]: 52.9%; viability, T/C (second compound 0.1 µM, first compound 0.000316 µM): 66.9%; viability, T/C (second compound 0.1 µM, first compound 0.001 µM): 67.4%; viability, T/C (second compound 0.1 µM, first compound 0.00316 µM): 65.7%; viability, T/C (second compound 0.1 µM, first compound 0.01 µM): 52.4%; viability, T/C [3]: 54.9%; viability, T/C [4]: 52%; viability, T/C (second compound 0.316 µM, first compound 0.000316 µM): 43.5%; viability, T/C (second compound 0.316 µM, first compound 0.001 µM): 47.3%; viability, T/C (second compound 0.316 µM, first compound 0.00316 µM): 49.5%; viability, T/C (second compound 0.316 µM, first compound 0.01 µM): 45.5%; viability, T/C [5]: 35.4%; viability, T/C [6]: 34.9%; viability, T/C (second compound 1 µM, first compound 0.000316 µM): 27.5%; viability, T/C (second compound 1 µM, first compound 0.001 µM): 31.6%; viability, T/C (second compound 1 µM, first compound 0.00316 µM): 23.1%; viability, T/C (second compound 1 µM, first compound 0.01 µM): 26.2%; viability, T/C [7]: 27.2%; viability, T/C [8]: 21.3%; viability, T/C (second compound 3.16 µM, first compound 0.000316 µM): 16%; viability, T/C (second compound 3.16 µM, first compound 0.001 µM): 16.1%; viability, T/C (second compound 3.16 µM, first compound 0.00316 µM): 12%; viability, T/C (second compound 3.16 µM, first compound 0.01 µM): 13%; viability, T/C [9]: 14.1%; viability, T/C [10]: 12%; viability, T/C (second compound 10 µM, first compound 0.000316 µM): 7.59%; viability, T/C (second compound 10 µM, first compound 0.001 µM): 8.2%; viability, T/C (second compound 10 µM, first compound 0.00316 µM): 6.62%; viability, T/C (second compound 10 µM, first compound 0.01 µM): 6.95%; viability, T/C [11]: 7.18%; viability, T/C [12]: 5.36%
